Results on one molecule are retold here after patent US4281009A, “Hydantoin derivatives” (Nippon Zoki Pharmaceutical Co., Ltd., priority 1978, dated 1981).

In test [1] the test system is normal mice and SART stress mice. Briefly: Analgesic effect, tail pressure method (Randall-Selitto's device). Type of test: in vivo, mice (ddY-strain male). The settings on record: Mus musculus, average of 30, 60, 90 and 120 minutes; for change in vivo at 100 mg/kg: ip, comparative drug intraperitoneal 100 mg/kg; for change in vivo at 500 mg/kg: po, peroral 500 mg/kg. The gist of the method:
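Randall-Selitto tail pressure threshold measured 60 min after intraperitoneal dosing, expressed as post/pre-dose pressure ratio versus vehicle control (0.5% CMC-Na or 0.5% Tween 80, 10 ml/kg). For oral dosing, mean of readings at 30, 60, 90 and 120 min used.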

The test system is the same in test [2]. Briefly: Analgesic effect, acetic acid writhing method. Type of test: in vivo. The settings on record: Mus musculus, sc, 100 mg/Kg subcutaneously. As for the experimental part:
5.2. Acetic acid writhing method: 0.1 ml./10 g of isotonic sodium chloride solution containing 0.7% acetic acid was given intraperitoneally to groups of mice each comprising 5 normal mice and 5 SART stress mice to which SART stress had been applied for 8 days. Writhing syndromes number appeared for 15 minutes after the administration was measured. The effect was evaluated by giving 100 mg/Kg of the compounds of the present invention or DPH subcutaneously and comparing the writhing syndromes number of the mice with that of control mice.
For orientation: In writhing tests, fewer writhes than in controls are read as antinociception.

The test system is the same in test [3]. The test can be described thus: Analgesic effect, D'Amour-Smith method. Type of test: in vivo, mice (ddY-strain male). The settings on record: Mus musculus, po, peroral 500 mg/kg. The gist of the method: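 ddY male normal mice and mice under 4-day SART stress (n=10/group); black-inked tail root irradiated with infrared rays (up to 15 s cutoff), escape latency recorded. Effect expressed as proportion of mice whose mean latency at 30, 60, 90 and 120 min post-dose was at least 2× pre-dose latency.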

The test system of test [4] is normal rats and SART stress rats. Briefly: Analgesic effect, pain induced by Bradykinin. Type of test: in vivo, rats (SD-strain male). The settings on record: peroral 500 mg/kg. The procedure: 5.4 Method of measuring a pain induced by Bradykinin:
Groups each comprising 4-8 SD-strain male normal rats and SART stress rats to which SART stress had been applied for 4 days were used. The tests were carried out according to the method of Deffenu et al. [Deffenu, G., Pegrassi, L., & Fumachi. B.; J. Pharm. Pharmacol.; 18, 135 (1966)] and Blane method [Blane, G. F.; J. Pharm. Pharmacol.; 19, 367 (1967)]. The effect judged was shown by ratio of the rats in which the effect was recognized according to the method of Abe, et al. [Abe, Kaneko & Takagi; Folia Pharmacol. Japon.; 67, 9-14 (1971)].

Test [5] has as its system dd-strain male mice. The test can be described thus: Antiulcerogenic effect on Takagi's restraint-plus-water-immersing ulcer. Type of test: in vivo. As for the experimental part: 6.1 Antiulcerogenic effect on Takagi's restraint-plus-water-immersing ulcer: Groups each comprising 8-26 dd-strain male mice were used. The tests were carried out according to a method of Takagi, et al. [Chem. Pharm. Bull.; 12, 465 (1964)]. Sum of length of diseased parts in the glandular stomach was measured and it was compared with that of control group. The compounds of the present invention or DPH was given intraperitoneally immediately before the restraint and immersion in water.

For test [6], the system named is spontaneously hypertensive rats (SHR). Briefly: Antihypertensive effect in spontaneously hypertensive rats. To be noted: 150 mg/Kg intraperitoneal, 60 minutes. Type of test: in vivo. As for the experimental part: 8. Antihypertensive effect: Groups of rats each comprising 6-9 spontaneously hypertensive rats (SHR) were used. The compounds of the present invention or DPH was given intraperitoneally. The rate of antihypertension 60 minutes after the administration was determined.

Test [7] concerns dd-strain male mice. Briefly: Inhibitory effect on Tremorine-induced tremor. Type of test: in vivo. The settings on record: tremorine 10 mg/Kg. As for the experimental part: 9. Inhibitory effect on Tremorine-induced tremor:
Groups of mice each comprising 10-40 dd-strain male mice were used. Effect of the compounds of the present invention on tremor caused by tremorine was examined. The compounds of the present invention or DPH was given intraperitoneally. 45 minutes thereafter, 10 mg/Kg of tremorine was given intraperitoneally for inducing the tremor.

SMILES strings stand for the structures.

The term inhibition in vivo denotes the drop in the measured response relative to a control, in per cent.

For `O=C1NC(=O)C(c2ccccc2)(c2ccccc2)N1` [DPH, 5,5-diphenylhydantoin, reference compound], the change in vivo at 100 mg/kg in test [1] (SART stress mice) was 18.4%; in test [1] (normal mice), -33.1%. Besides, the change in vivo at 500 mg/kg in test [1] (SART stress mice) is 17.9%; in test [1] (normal mice), 5.9%. Besides, the inhibition in vivo at 100 mg/kg in test [2] (SART stress mice) is -6%; in test [2] (normal mice) it was -16.3%; with dd-strain male mice [5] (Mus musculus, ip, 100 mg/kg intraperitoneal), 9%. Besides, the responders at 500 mg/kg in test [3] (SART stress mice) and in test [3] (normal mice) was 0% each time. Also, the Analgesic effect in test [4] (SART stress rats) and in test [4] (normal rats) was 0% each time. In the test with dd-strain male mice [5] (50 mg/kg intraperitoneal), the “Antiulcerogenic effect on Takagi's restraint-plus-water-immersing ulcer” value is reported as 7.8%. Besides, the Rate of antihypertension in test [6] is given as 6.6%. The “Inhibitory effect on Tremorine-induced tremor” value in the test with dd-strain male mice [7] (50 mg/kg intraperitoneal) and in the test on dd-strain male mice [7] (100 mg/kg intraperitoneal) was 0% throughout.
